Experiments:
[1] = Apparent pKa of lipid nanoparticles; format: physicochemical; settings: for Apparent pKa 95% CI: Table 2b, 95% confidence interval
CD-1 mice = experiment: Expression of hEPO induced by LNPs (mRNA encoding hEPO) administered to mice; format: in vivo; settings: Table 4a, serum, 6 h after intravenous injection; for Avg. hEPO Concentration (mIU/mL)* ± Avg. SD: ELLA Simple Plex Assay
How it was run: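 LNPs of DSPC, cholesterol, PEG lipid and test ionizable lipid carrying hEPO mRNA were given intravenously. Serum hEPO was measured 6 h post-injection by ELLA Simple Plex immunoassay calibrated to the 2nd IRP WHO standard.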

[2] = Encapsulation efficiency (% EE) of lipid nanoparticles; format: physicochemical; settings: nanoparticles comprising the lipid
How it was run: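 RNA-loaded LNPs were diluted to ~5 μg/mL in TE buffer (pH 7.5) and incubated 15 min at 37 °C with buffer or 2% Triton X-100 solution, then RiboGreen fluorescence was read (ex ~480/em ~520 nm). After blank subtraction, free RNA % = intact-sample fluorescence ÷ Triton-disrupted fluorescence.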

[3] = Lipid nanoparticle surface hydrophobicity by Generalized Polarization by Laurdan (N-GP); format: physicochemical; settings: for LNP surface hydrophobicity (N-GP*): Table 2b, nanoparticles comprising the lipid
How it was run: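 Laurdan, a fluorescent aminonaphthalene ketone lipid, is post-inserted into the nanoparticle surface. Its fluorescence spectrum is collected and converted to a normalized Generalized Polarization (N-GP) value as the measure of surface hydrophobicity.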

[4] = Particle size (diameter) and polydispersity index of lipid nanoparticles; format: physicochemical; settings: nanoparticles comprising the lipid
How it was run: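 Size and PDI measured by dynamic light scattering (Zetasizer Nano ZS) in 1×PBS. LNPs comprised DSPC, cholesterol, PEG lipid and ionizable lipid, some with rhodamine-DOPE.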

| Apparent pKa 95% CI [1] | % EE ([2]; Table 2b) [%] | % EE ([2]; Table 3) [%] | LNP surface hydrophobicity (N-GP*) [3] | Diameter (nm) ([4]; Table 2b) | PDI ([4]; Table 2b) | Diameter (nm) ([4]; Table 3) | PDI ([4]; Table 3) | Apparent pKa ([1]; Table 2a, nanoparticles comprising the lipid) | % EE ([2]; Table 2a) [%] | Lipid nanoparticle surface hydrophobicity (N-GP*) ([3]; Table 2a, Laurdan, higher N-GP indicates a less polar surface) | PDI ([4]; Table 2a) | Diameter (nm) ([4]; Table 2a, DSPC, cholesterol, PEG lipid) | Compound | Avg. hEPO Concentration (mIU/mL)* ± Avg. SD (CD-1 mice) [mIU/mL] | Avg. hEPO Concentration (mIU/mL) ± Avg. SD (CD-1 mice) [mIU/mL] |
| --- | --- | --- | --- | --- | --- | --- | --- | --- | --- | --- | --- | --- | --- | --- | --- |
| 6.865 to 6.928 | 26.4 | 36.1 | 0.98 | 163.9 | 0.22 | 89.3 | 0.154 | – | – | – | – | – | CCCCCC(CCCCC)CCOC(=O)CCCCCCCN(CCCCCCCC(=O)OCCC(CCCCC)CCCCC)CCCNC(=O)C1(C)CC1 [Compound 25] | 5.13E+06 ± 9.33E+04 | – |
| – | – | 95.0 | – | – | – | 94.5 | 0.134 | 6.645 | 86.3 | 1.09 | 0.113 | 84.8 | CCCCCC(CCCCC)CCOC(=O)CCCCCCCN(CCCCCCCC(=O)OCCC(CCCCC)CCCCC)CCCNS(=O)(=O)CC [Compound 26] | – | 1.42E+07 ± 3.66E+05 |
| 6.614 to 6.687 | 78.2 | 93.5 | 1.00 | 87.8 | 0.178 | 66.9 | 0.148 | – | – | – | – | – | CCCCCC(CCCCC)CCOC(=O)CCCCCCCN(CCCCCCCC(=O)OCCC(CCCCC)CCCCC)CCCNS(=O)(=O)Cc1ccon1 [Compound 27] | 2.12E+06 ± 7.18E+04 | – |
| 6.545 to 6.670 | 99.9 | 99.5 | 0.99 | 84.3 | 0.202 | 90.3 | 0.161 | – | – | – | – | – | CCCCCC(CCCCC)CCOC(=O)CCCCCCCN(CCCCCCCC(=O)OCCC(CCCCC)CCCCC)CCCNc1ncccc1N [Compound 28] | 6.30E+05 ± 1.83E+04 | – |

— patent US20240226026A1, “BRANCHED TAIL LIPID COMPOUNDS AND COMPOSITIONS FOR INTRACELLULAR DELIVERY OF THERAPEUTIC AGENTS” (ModernaTX, Inc., priority 2021, published 2024)
